Data reported in US8034767B2, “Method for producing purine nucleosides and nucleotides by fermentation using a bacterium belonging to the genus Escherichia or Bacillus” (priority 2006, dated 2011).

Experiments:
E. coli strain TG1 = test: MIC of purine base analogues on M9 glucose minimal agar plates, parental strain; format: cell-based; settings: Escherichia coli, 10^5 to 10^6 cells spotted, growth after 44 h at 37° C.
Procedure: (§1) The minimal inhibitory concentrations (MIC) of purine base analogues for the strain TG1::PnlpD-yeaS and the parental strain TG1 were determined on M9 glucose minimal agar plates containing graded concentrations of inhibitors. The plates were spotted with 10^5 to 10^6 cells from an overnight culture grown in a minimal medium. The growth was estimated after 44 h incubation at 37° C.

[1] = tested on: E. coli strain TG1::PnlpD-yeaS; test: MIC of purine base analogues on M9 glucose minimal agar plates, yeaS-overexpressing strain; format: cell-based; settings: Escherichia coli, 44 h, read-out: MIC for E. coli strain TG1::PnlpD-yeaS
Procedure: as §1

SMILES	MIC (E. coli strain TG1) [µg/mL]	MIC [1] [µg/mL]
Nc1nc2nc[nH]c2c(=S)[nH]1 [6-thioguanine]	30	450
Nc1ncnc2nn[nH]c12 [8-azaadenine]	100	250
Nc1nc(N)c2[nH]cnc2n1 [2,6-diaminopurine]	200	600
Sc1ncnc2nc[nH]c12 [6-mercaptopurine]	50	150
